Measurements reported in patent US8044057B2, “Methods for suppressing an immune response or treating a proliferative disorder” (The United States of America as represented by the …, priority 2003, dated 2011).

Tests used:
Type in all cases: cell-based, human
[1] = test system: AKT; test: Western blot of phospho-Akt S473 in A549 cells
Experimental: A549 cells were treated without or with 100 mcM LY303511, 200 ng/ml rapamycin, or 50 nM wortmannin in serum free media for 1 hour before addition of E. coli lipopolysaccharide (LPS), […] and interferon (IFN)-γ, 100 U/ml (LPS/IFN-γ or “L/I”). Cells were homogenized and the indicated proteins (see Table 1) were detected by Western blot. Western blots are from the same experiment, and representative of three experiments.
(§1) Measurement of protein phosphorylation: A549 cells were incubated in serum-free medium without or with inhibitors for 1 hour, as indicated, before incubation for 30 minutes with a mixture of LPS, 100 μg/ml (Sigma; St. Louis, Mo.) and IFN-γ, 100 U/ml (Roche; Nutley, N.J.). PASM cells were incubated in serum-free medium without or with inhibitors for 24 h as indicated, before incubation for 30 min with 10% FBS. A549 or PASM cells were washed once with cold PBS and incubated for 15 minutes on ice ih lysis buffer (20 mM Tris pH 8.0, 1% Nonidet P-40, 1 mM EDTA, 5 mM benzamidine, aprotinin, 10 μg/ml, leupeptin, 10 μg/ml, trypsin soybean inhibitor, 1 mM PMSF, 50 mM sodium fluoride, 100 μM sodium orthovanadate, and 1: 100 Sigma phosphatase inhibitor set I containing cantharidin, microcystin LR and bromotetramizole). […] Integrated band densities were quantified using Scion Image beta 3b software.

[2] = test system: mTOR; test: Western blot of phospho-mTOR S2481 in PASM cells
Experimental: HPASM cells were purchased from Clonetics and passaged according to the manufacturer's instructions. Cells were plated in 100 mm dishes, and allowed to grow to near confluence before serum starvation for 24 hours. Inhibitors were added to the media 1 hour before the addition of 10% FBS for 30 minutes. Cells were homogenized and the indicated proteins were detected by Western blot.
as §1, with “bromotetramizole). After freezing and thawing, lysates were centrifuged for 30 min at 16,000×g before protein measurement and storage at −80° C.” for “bromotetramizole).”

[3] = test system: A549 cells; test: KI-67 immunostaining in A549 cells; conditions: 24 hours
Excerpt: Slides were mounted in solution containing DAPI to stain nuclei. Photos were captured using equal laser intensity and gain.

[4] = test system: A549 cells; test: BrDU incorporation (in situ ELISA) in A549 cells; conditions: 24 hours, 0-200 μM LY303511 without or with rapamycin 200 ng/ml

O=c1cc(N2CCNCC2)oc2c(-c3ccccc3)cccc12 [LY303511, 2-(4-piperazinyl)-8-phenyl-4H-1-benzopyran-4-one]
inhibition of phosphorylation of Akt ([1]; even at 100 mcM): does not inhibit phosphorylation of Akt
phosphorylation of AKT (S473) ([1]; inhibitors 1 hour before LPS/IFN-γ, Western blot): increase phosphorylation of AKT
serum-stimulated phosphorylation of mTOR at S2481 [2]: inhibited serum-stimulated phosphorylation of mTOR at S2481
whole cell KI-67 levels [3]: significant decrease in whole cell KI-67 levels
BrDu uptake (DNA synthesis, proliferation) [4]: concentration-dependent reduction
